ChEMBL document CHEMBL4325853, “Design, synthesis and antibacterial evaluation of 2,4-disubstituted-6-thiophenyl-pyrimidines” (Eur J Med Chem, 2019)
In brackets after ≈: the same amount, converted by molar mass. Activity calls are given as the source filed them. The rule behind the calls is not given here.

How the values were obtained:
Enterococcus faecium [1] = assay: Antibacterial activity against Enterococcus faecium ATCC 49624 after 18 hrs by broth microdilution method; format: functional; conditions: ATCC 49624, 18 h
[2] = test system: Staphylococcus epidermidis; assay: Antibacterial activity against Staphylococcus epidermidis ATCC 12228 after 18 hrs by broth microdilution method; format: functional; conditions: ATCC 12228, 18 h
Escherichia coli = assay: Antibacterial activity against Escherichia coli ATCC 25922 after 18 hrs by broth microdilution method; format: functional; conditions: ATCC 25922, 18 h
Staphylococcus aureus [3] = assay: Potency index, ratio of berberine MIC to test compound MIC for Staphylococcus aureus ATCC 29213; format: functional
Enterococcus faecium [4] = assay: Potency index, ratio of berberine MIC to test compound MIC for Enterococcus faecium ATCC 49624; format: functional
Enterococcus faecalis = assay: Potency index, ratio of berberine MIC to test compound MIC for Enterococcus faecalis ATCC 29212; format: functional
Staphylococcus aureus [5] = assay: Antibacterial activity against methicillin-resistant Staphylococcus aureus ATCC BAA41 after 18 hrs by broth microdilution method; format: functional; conditions: ATCC BAA41, 18 h
Staphylococcus aureus [6] = assay: Antibacterial activity against methicillin-resistant Staphylococcus aureus ATCC 33592 after 18 hrs by broth microdilution method; format: functional; conditions: ATCC 33592, 18 h
Staphylococcus aureus [7] = assay: Potency index, ratio of methicillin MIC to test compound MIC for methicillin-resistant Staphylococcus aureus ATCC BAA41; format: functional
Staphylococcus aureus [8] = assay: Antibacterial activity against methicillin-resistant Staphylococcus aureus isolate 7917 after 18 hrs by broth microdilution method; format: functional; conditions: isolate 7917, 18 h
Staphylococcus aureus [9] = assay: Antibacterial activity against methicillin-resistant Staphylococcus aureus isolate 7247 after 18 hrs by broth microdilution method; format: functional; conditions: isolate 7247, 18 h
Staphylococcus aureus [10] = assay: Antibacterial activity against methicillin-resistant Staphylococcus aureus isolate 3096 after 18 hrs by broth microdilution method; format: functional; conditions: isolate 3096, 18 h
Staphylococcus aureus [11] = assay: Antibacterial activity against methicillin-resistant Staphylococcus aureus isolate 2491 after 18 hrs by broth microdilution method; format: functional; conditions: isolate 2491, 18 h
Staphylococcus aureus [12] = assay: Antibacterial activity against methicillin-resistant Staphylococcus aureus isolate 2931 after 18 hrs by broth microdilution method; format: functional; conditions: isolate 2931, 18 h
Staphylococcus aureus [13] = assay: Antibacterial activity against methicillin-resistant Staphylococcus aureus isolate 7863 after 18 hrs by broth microdilution method; format: functional; conditions: isolate 7863, 18 h
Staphylococcus aureus [14] = assay: Antibacterial activity against methicillin-resistant Staphylococcus aureus isolate 7947 after 18 hrs by broth microdilution method; format: functional; conditions: isolate 7947, 18 h
Staphylococcus aureus [15] = assay: Antibacterial activity against methicillin-resistant Staphylococcus aureus isolate 7813 after 18 hrs by broth microdilution method; format: functional; conditions: isolate 7813, 18 h
Staphylococcus aureus [16] = assay: Antibacterial activity against methicillin-resistant Staphylococcus aureus isolate 5426 after 18 hrs by broth microdilution method; format: functional; conditions: isolate 5426, 18 h
Staphylococcus aureus [17] = assay: Antibacterial activity against methicillin-resistant Staphylococcus aureus isolate 1651 after 18 hrs by broth microdilution method; format: functional; conditions: isolate 1651, 18 h
Staphylococcus aureus [18] = assay: Antibacterial activity against methicillin-resistant Staphylococcus aureus isolate 8179 after 18 hrs by broth microdilution method; format: functional; conditions: isolate 8179, 18 h
Staphylococcus aureus [19] = assay: Antibacterial activity against methicillin-resistant Staphylococcus aureus isolate 8071 after 18 hrs by broth microdilution method; format: functional; conditions: isolate 8071, 18 h
Staphylococcus aureus [20] = assay: Antibacterial activity against methicillin-resistant Staphylococcus aureus isolate 7916 after 18 hrs by broth microdilution method; format: functional; conditions: isolate 7916, 18 h
Staphylococcus aureus [21] = assay: Antibacterial activity against methicillin-resistant Staphylococcus aureus isolate 7682 after 18 hrs by broth microdilution method; format: functional; conditions: isolate 7682, 18 h
Staphylococcus aureus [22] = assay: Antibacterial activity against methicillin-resistant Staphylococcus aureus isolate 5239 after 18 hrs by broth microdilution method; format: functional; conditions: isolate 5239, 18 h
Staphylococcus aureus [23] = assay: Antibacterial activity against methicillin-resistant Staphylococcus aureus isolate 7536 after 18 hrs by broth microdilution method; format: functional; conditions: isolate 7536, 18 h
Staphylococcus aureus [24] = assay: Antibacterial activity against methicillin-resistant Staphylococcus aureus isolate 1708 after 18 hrs by broth microdilution method; format: functional; conditions: isolate 1708, 18 h
Staphylococcus aureus [25] = assay: Antibacterial activity against methicillin-resistant Staphylococcus aureus isolate 5035 after 18 hrs by broth microdilution method; format: functional; conditions: isolate 5035, 18 h
Staphylococcus aureus [26] = assay: Antibacterial activity against methicillin-resistant Staphylococcus aureus isolate 1947 after 18 hrs by broth microdilution method; format: functional; conditions: isolate 1947, 18 h
Staphylococcus aureus [27] = assay: Antibacterial activity against methicillin-resistant Staphylococcus aureus isolate 8078 after 18 hrs by broth microdilution method; format: functional; conditions: isolate 8078, 18 h
Staphylococcus aureus [28] = assay: Ratio of MBC to MIC for methicillin-resistant Staphylococcus aureus ATCC BAA41; format: functional
Staphylococcus aureus [29] = assay: Ratio of MBC to MIC for methicillin-resistant Staphylococcus aureus ATCC 43300; format: functional
[30] = molecular target: T1, Cell division protein FtsZ (Staphylococcus aureus) (UniProt P0A031); assay: Inhibition of recombinant Staphylococcus aureus FtsZ polymerization at 8 ug/ml by 90 degree light scattering-based fluorescence spectrometric analysis
T1 sequence (whole entry): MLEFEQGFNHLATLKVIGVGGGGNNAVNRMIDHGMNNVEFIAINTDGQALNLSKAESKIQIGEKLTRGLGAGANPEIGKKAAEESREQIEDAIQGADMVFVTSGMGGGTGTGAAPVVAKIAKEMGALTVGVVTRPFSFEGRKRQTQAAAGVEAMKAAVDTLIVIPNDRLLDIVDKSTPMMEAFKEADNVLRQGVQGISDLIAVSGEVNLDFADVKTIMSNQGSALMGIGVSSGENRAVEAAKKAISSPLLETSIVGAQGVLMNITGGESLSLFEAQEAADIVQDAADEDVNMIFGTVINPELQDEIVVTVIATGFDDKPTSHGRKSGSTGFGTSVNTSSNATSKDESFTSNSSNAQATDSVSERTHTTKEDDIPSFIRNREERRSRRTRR

[31] = molecular target: T1, Cell division protein FtsZ (Staphylococcus aureus); assay: Inhibition of recombinant Staphylococcus aureus FtsZ GTPase activity assessed as reduction in inorganic phosphate formation after 30 mins by colorimetric method
[32] = molecular target: T1, Cell division protein FtsZ (Staphylococcus aureus); assay: Inhibition of recombinant Staphylococcus aureus FtsZ GTPase activity assessed as reduction in inorganic phosphate formation at 16 ug/ml after 30 mins by colorimetric method relative to control
Staphylococcus aureus [33] = assay: Antibacterial activity against Staphylococcus aureus ATCC 29213 after 10 passages by broth microdilution method; format: functional, organism-based
Staphylococcus aureus [34] = assay: Ratio of MIC for Staphylococcus aureus ATCC 29213 after and before 11 to 21 serial passages; format: functional
[35] = Hemolytic activity against human erythrocytes measured after 1 hr; format: ADME, cell-based, Erythrocyte
[36] = Selectivity index, ratio of HC50 for human erythrocytes to MIC for methicillin-resistant Staphylococcus aureus ATCC BAA41; format: toxicity; conditions: read-out: Selectivity Index
[37] = Selectivity index, ratio of HC50 for human erythrocytes to MIC for methicillin-resistant Staphylococcus aureus ATCC BAA1720; format: toxicity; conditions: read-out: Selectivity Index
[38] = Selectivity index, ratio of HC50 for human erythrocytes to MIC for methicillin-resistant Staphylococcus aureus ATCC 33591; format: toxicity; conditions: read-out: Selectivity Index
[39] = Selectivity index, ratio of HC50 for human erythrocytes to MIC for methicillin-resistant Staphylococcus aureus ATCC 33592; format: toxicity; conditions: read-out: Selectivity Index
[40] = Selectivity index, ratio of HC50 for human erythrocytes to MIC for methicillin-resistant Staphylococcus aureus ATCC 43300; format: toxicity; conditions: read-out: Selectivity Index

Compound: FC(F)(F)c1ccc(CN2CCCN(CCc3cc(-c4cccs4)nc(-c4ccncc4)n3)CC2)cc1
- MIC90 (Enterococcus faecium [1]): 4 µg/mL (≈ 7.64 µM)
- MIC90 [2]: 4 µg/mL (≈ 7.64 µM)
- MIC90 (Escherichia coli): 128 µg/mL (≈ 244 µM)
- Ratio (Staphylococcus aureus [3]): 50 - 100
- Ratio (Enterococcus faecium [4]): 50 - 100
- Ratio (Enterococcus faecalis): 50 - 100
- MIC90 (Staphylococcus aureus [5]): 4 µg/mL (≈ 7.64 µM)
- MIC90 (Staphylococcus aureus [6]): 4 µg/mL (≈ 7.64 µM)
- Ratio (Staphylococcus aureus [7]): >100
- MIC90 (Staphylococcus aureus [8]): 4 µg/mL (≈ 7.64 µM)
- MIC90 (Staphylococcus aureus [9]): 4 µg/mL (≈ 7.64 µM)
- MIC90 (Staphylococcus aureus [10]): 4 µg/mL (≈ 7.64 µM)
- MIC90 (Staphylococcus aureus [11]): 8 µg/mL (≈ 15.3 µM)
- MIC90 (Staphylococcus aureus [12]): 4 µg/mL (≈ 7.64 µM)
- MIC90 (Staphylococcus aureus [13]): 4 µg/mL (≈ 7.64 µM)
- MIC90 (Staphylococcus aureus [14]): 4 µg/mL (≈ 7.64 µM)
- MIC90 (Staphylococcus aureus [15]): 8 µg/mL (≈ 15.3 µM)
- MIC90 (Staphylococcus aureus [16]): 8 µg/mL (≈ 15.3 µM)
- MIC90 (Staphylococcus aureus [17]): 8 µg/mL (≈ 15.3 µM)
- MIC90 (Staphylococcus aureus [18]): 4 µg/mL (≈ 7.64 µM)
- MIC90 (Staphylococcus aureus [19]): 4 µg/mL (≈ 7.64 µM)
- MIC90 (Staphylococcus aureus [20]): 4 µg/mL (≈ 7.64 µM)
- MIC90 (Staphylococcus aureus [21]): 8 µg/mL (≈ 15.3 µM)
- MIC90 (Staphylococcus aureus [22]): 4 µg/mL (≈ 7.64 µM)
- MIC90 (Staphylococcus aureus [23]): 4 µg/mL (≈ 7.64 µM)
- MIC90 (Staphylococcus aureus [24]): 8 µg/mL (≈ 15.3 µM)
- MIC90 (Staphylococcus aureus [25]): 4 µg/mL (≈ 7.64 µM)
- MIC90 (Staphylococcus aureus [26]): 4 µg/mL (≈ 7.64 µM)
- MIC90 (Staphylococcus aureus [27]): 4 µg/mL (≈ 7.64 µM)
- Ratio (Staphylococcus aureus [28]): 1
- Ratio (Staphylococcus aureus [29]): 2

Compound: CC(C)c1ccc(CN2CCCN(CCc3cc(-c4cccs4)nc(-c4ccncc4)n3)CC2)cc1
- MIC90 (Enterococcus faecium [1]): 2 µg/mL (≈ 4.02 µM)
- MIC90 [2]: 2 µg/mL (≈ 4.02 µM)
- MIC90 (Escherichia coli): 128 µg/mL (≈ 257 µM)
- Ratio (Staphylococcus aureus [3]): 50 - 100
- Ratio (Enterococcus faecium [4]): 50 - 100
- Ratio (Enterococcus faecalis): 50 - 100
- MIC90 (Staphylococcus aureus [5]): 2 µg/mL (≈ 4.02 µM)
- MIC90 (Staphylococcus aureus [6]): 2 µg/mL (≈ 4.02 µM)
- Ratio (Staphylococcus aureus [7]): >100
- MIC90 (Staphylococcus aureus [8]): 2 µg/mL (≈ 4.02 µM)
- MIC90 (Staphylococcus aureus [9]): 2 µg/mL (≈ 4.02 µM)
- MIC90 (Staphylococcus aureus [10]): 2 µg/mL (≈ 4.02 µM)
- MIC90 (Staphylococcus aureus [11]): 4 µg/mL (≈ 8.04 µM)
- MIC90 (Staphylococcus aureus [12]): 2 µg/mL (≈ 4.02 µM)
- MIC90 (Staphylococcus aureus [13]): 2 µg/mL (≈ 4.02 µM)
- MIC90 (Staphylococcus aureus [14]): 2 µg/mL (≈ 4.02 µM)
- MIC90 (Staphylococcus aureus [15]): 2 µg/mL (≈ 4.02 µM)
- MIC90 (Staphylococcus aureus [16]): 2 µg/mL (≈ 4.02 µM)
- MIC90 (Staphylococcus aureus [17]): 2 µg/mL (≈ 4.02 µM)
- MIC90 (Staphylococcus aureus [18]): 2 µg/mL (≈ 4.02 µM)
- MIC90 (Staphylococcus aureus [19]): 2 µg/mL (≈ 4.02 µM)
- MIC90 (Staphylococcus aureus [20]): 2 µg/mL (≈ 4.02 µM)
- MIC90 (Staphylococcus aureus [21]): 4 µg/mL (≈ 8.04 µM)
- MIC90 (Staphylococcus aureus [22]): 2 µg/mL (≈ 4.02 µM)
- MIC90 (Staphylococcus aureus [23]): 2 µg/mL (≈ 4.02 µM)
- MIC90 (Staphylococcus aureus [24]): 2 µg/mL (≈ 4.02 µM)
- MIC90 (Staphylococcus aureus [25]): 2 µg/mL (≈ 4.02 µM)
- MIC90 (Staphylococcus aureus [26]): 2 µg/mL (≈ 4.02 µM)
- MIC90 (Staphylococcus aureus [27]): 2 µg/mL (≈ 4.02 µM)
- Ratio (Staphylococcus aureus [28]): 1
- Ratio (Staphylococcus aureus [29]): 2
- inhibition [30]: Active
- inhibition [31]: Dose-dependent effect
- inhibition [32]: 70%
- Activity (Staphylococcus aureus [33]): Active
- Ratio (Staphylococcus aureus [34]): 1
- HC50 at 1 h [35]: > 64 µg/mL
- selectivity ratio [36]: > 32
- selectivity ratio [37]: > 32
- selectivity ratio [38]: > 32
- selectivity ratio [39]: > 32
- selectivity ratio [40]: > 32
